Test results as given in patent US20230174538A1, “Tricyclic heterocycles” (Merck Patent GmbH, priority 2020, published 2023).

tested on: YAP-TEAD interaction; test: SK-HEP-1 reporter assay (8xTEAD responsive elements driving NanoLuc luciferase); format: cell-based; details: Homo sapiens, SK-HEP1, SK-HEP-1 reporter assay
Description: To identify inhibitors of YAP-TEAD interaction, 8×TEAD responsive elements driving the NanoLuc® luciferase gene were stably integrated into SK-HEP-1 cells (ECACC #: 91091816).
For the assay, cells were treated in duplicates with the test compounds in a 10-point dose, with the top concentration starting at 30 μM (final concentration in assay). After a 24 hour incubation at 37° C., 95% rH, and 5% CO2, a luciferase substrate/lysis reagent mix (NanoGlo™, Promega) was added to the cells, allowing the quantification of cellular luciferase activity.
Cell Media: The cells were cultured in the following media: MEM, +10% FBS, +1× GlutaMAX, +1 mM Sodium-Pyruvate, +100 μM Non-essential amino acids, +0.1 mg/ml Hygromycin. The media used for the assay was: MEM (w/o Phenol Red), +10% FBS, +1× GlutaMAX, +1 mM Sodium-Pyruvate, +100 μM Non-essential amino acids, +0.5% Pen/Strep
Reagents: The reagents used are listed below:
Cell culture: The cells were examined using an inverted microscope to check for health and cell density. To dissociate adherent cells, the monolayer of cells was washed once with pre-warmed PBS. After removing the PBS, 3 ml pre-warmed Accutase® was added to a F75 flask, dispersed evenly and the flask was allowed to sit in incubator for ˜4-5 minutes.
When a single cell suspension was obtained, 7 ml of prewarmed growth media was added and resuspended with the cells. The cell suspension was transferred to a sterile 15 ml conical centrifuge tube, and spun for 5 min at 300×g, RT. The supernatant was discarded and the pellet was resuspended in 10 ml of pre-warmed growth media.
The total cell count was determined, and 20 μl of the desired cell number was added to each well of a 384 well plate using a Multidrop Combi. The plates were then incubated for 24 hours at 37° C., 95% rH, and 5% CO2.
Compound treatment: 24 hours after seeding, the cells were treated with compounds.
A 1:333 dilution of compounds, diluted in DMSO, was made to get a final concentration of 0.3% DMSO per well. To transfer the compounds to the assay plate, 120 nl was shot from Labcyte low dead volume plates to the cell plates containing 20 μl media/well with the ECHO 555 liquid handling system.
After treatment, the cells were fed with 20 μl fresh pre-warmed assay media using a Multidrop combi.
The assay plates were then incubated for another 24 h at 37° C., 95% rH, and 5% CO2.
Luciferase readout: 24 h after treatment, the plates were taken out of the incubator and were allowed to equilibrate to RT. 30 μl of NanoGlo® reagent was added to the plates in the dark. Plates were shaken for 20 min on a Teleshake (˜1500 rpm) in the dark. The luminescence was then measured using an EnVision microplate reader. The IC50 values were generated using Genedata Screener®.

Row | Structure (SMILES) | IC50 [µM]
1 | CN(Cc1noc(C2CC2)n1)C(=O)c1ccc2c(c1)c1cn(C)nc1n2-c1ccc(C(F)(F)F)cc1 [B137^] | > 10
2 | Cn1cc2c3cc(C(=O)NCc4ncn5c4CCCC5)ccc3n(-c3ccc(C(F)(F)F)cc3)c2n1 [Example B20, N-({5H,6H,7H,8H-imidazo[1,5-a]pyridin-1-yl}methyl)-2-methyl-8-[4-(trifluoromethyl)phenyl]-2H,8H-pyrazolo[3,4-b]indole-5-carboxamide] | > 10
3 | Cn1cc2c3cc(C(=O)N4CCCC4Cn4cncn4)ccc3n(-c3ccc(C(F)(F)F)cc3)c2n1 (stereo not drawn) [Example B54, 1-[(1-{2-methyl-8-[4-(trifluoromethyl)phenyl]-2H,8H-pyrazolo[3,4-b]indole-5-carbonyl}pyrrolidin-2-yl)methyl]-1H-1,2,4-triazole] | > 10
4 | Cn1cc2c3cc(C(=O)N[C@@H]4C[C@@H]5OCCC[C@@H]54)ccc3n(-c3ccc(C(F)(F)F)cc3)c2n1 [B114^] | > 10
5 | Cn1cc2c3cc(C(=O)N4CC(O)(Cc5ccn[nH]5)C4)ccc3n(-c3ccc(C(F)(F)F)cc3)c2n1 [Example B47, 1-{2-methyl-8-[4-(trifluoromethyl)-phenyl]-2H,8H-pyrazolo[3,4-b]indole-5-carbonyl}-3-[(1H-pyrazol-5-yl)methyl]azetidin-3-ol] | 0.1 to 10
6 | Cn1cc2c3cc(C(=O)NC4CC(O)C45CCOCC5)ccc3n(-c3ccc(C(F)(F)F)cc3)c2n1 (stereo not drawn) [Example B16, N-{3-hydroxy-7-oxaspiro[3.5]nonan-1-yl}-2-methyl-8-[4-(trifluoromethyl)phenyl]-2H,8H-pyrazolo[3,4-b]indole-5-carboxamide] | 0.1 to 10
7 | Cn1cc2c3cc(C(=O)N(CCO)CC4CC=CCC4)ccc3n(-c3ccc(C(F)(F)F)cc3)c2n1 (stereo not drawn) [Example B12, N-[(cyclohex-3-en-1-yl)methyl]-N-(2-hydroxyethyl)-2-methyl-8-[4-(trifluoromethyl)phenyl]-2H,8H-pyrazolo[3,4-b]indole-5-carboxamide] | 0.1 to 10
8 | Cc1nnc2n1CCCC2NC(=O)c1ccc2c(c1)c1cn(C)nc1n2-c1ccc(C(F)(F)F)cc1 (stereo not drawn) [Example B64, 2-methyl-N-(3-methyl-5H,6H,7H,8H-[1,2,4]triazolo[4,3-a]pyridin-8-yl}-8-[4-(trifluoromethyl)phenyl]-2H,8H-pyrazolo[3,4-b]indole-5-carboxamide] | > 10
9 | Cn1cc2c3cc(C(=O)N4CC5(CCCC5)CC4CO)ccc3n(-c3ccc(C(F)(F)F)cc3)c2n1 (stereo not drawn) [Example B10, (2-{2-methyl-8-[4-(trifluoromethyl)phenyl]-2H,8H-pyrazolo[3,4-b]indole-5-carbonyl}-2-azaspiro[4.4]nonan-3-yl)methanol] | 0.1 to 10
10 | Cn1cc2c3cc(C(=O)NC4(c5ncon5)CCC4)ccc3n(-c3ccc(C(F)(F)F)cc3)c2n1 [B117^] | 0.01 to 0.1
11 | Cn1cc2c3cc(C(=O)NCc4conc4C4CCC4)ccc3n(-c3ccc(C(F)(F)F)cc3)c2n1 [Example B63, N-[(3-cyclobutyl-1,2-oxazol-4-yl)methyl]-2-methyl-8-[4-(trifluoromethyl)phenyl]-2H,8H-pyrazolo[3,4-b]indole-5-carboxamide] | 0.1 to 10
12 | Cn1cc2c3cc(C(=O)N4CCn5nccc5C4CO)ccc3n(-c3ccc(C(F)(F)F)cc3)c2n1 (stereo not drawn) [Example B40] | > 10
13 | CC1CN(C(=O)c2ccc3c(c2)c2cn(C)nc2n3-c2ccc(C(F)(F)F)cc2)CC(CCO)O1 (stereo not drawn) [Example B33, 2-(6-methyl-4-{2-methyl-8-[4-(trifluoromethyl)phenyl]-2H,8H-pyrazolo[3,4-b]indole-5-carbonyl}morpholin-2-yl)ethan-1-ol] | 0.1 to 10
14 | Cn1cc2c3cc(C(=O)O)ccc3n(CC3CCCCC3)c2n1 [Example 11, 8-(cyclohexylmethyl)-2-methyl-2H,8H-pyrazolo[3,4-b]indole-5-carboxylic acid] | 0.1 to 10
15 | Cn1cc2c3cc(C(=O)NCCn4cnnc4C4CC4)ccc3n(-c3ccc(C(F)(F)F)cc3)c2n1 [Example B98, N-[2-(3-cyclopropyl-4H-1,2,4-triazol-4-yl)ethyl]-2-methyl-8-[4-(trifluoromethyl)phenyl]-2H,8H-pyrazolo[3,4-b]indole-5-carboxamide] | 0.1 to 10
16 | Cn1cc2c3cc(C(=O)N4[C@H](CO)C[C@@H]5CCCC[C@@H]54)ccc3n(-c3ccc(C(F)(F)F)cc3)c2n1 (single isomer, unassigned) [Example B32] | 0.1 to 10

Further lines, results first:

Row | IC50 [µM] | Structure (SMILES)
17 | 0.01 to 0.1 | CCC(NC(=O)c1ccc2c(c1)c1cn(C)nc1n2-c1ccc(C(F)(F)F)cc1)c1c[nH]nn1 (stereo not drawn) [Example B3, 2-methyl-N-[1-(1H-1,2,3-triazol-4-yl)propyl]-8-[4-(trifluoromethyl)phenyl]-2H,8H-pyrazolo[3,4-b]indole-5-carboxamide]
18 | > 10 | Cc1c[nH]c(C(NC(=O)c2ccc3c(c2)c2cn(C)nc2n3-c2ccc(C(F)(F)F)cc2)C2CC2)n1 (stereo not drawn) [B145^]
19 | 0.1 to 10 | COCc1noc(C(C)NC(=O)c2ccc3c(c2)c2cn(C)nc2n3-c2ccc(C(F)(F)F)cc2)n1 (stereo not drawn) [Example B86, N-{1-[3-(methoxymethyl)-1,2,4-oxadiazol-5-yl]ethyl}-2-methyl-8-[4-(trifluoromethyl)phenyl]-2H,8H-pyrazolo[3,4-b]indole-5-carboxamide]
20 | 0.1 to 10 | Cn1cc2c3cc(C(=O)N4CC(O)(c5ccsc5)C4)ccc3n(-c3ccc(C(F)(F)F)cc3)c2n1 [B135^]
21 | 0.1 to 10 | Cn1cc2c3cc(C(=O)NC45CC4COC5(C)C)ccc3n(-c3ccc(C(F)(F)F)cc3)c2n1 (stereo not drawn) [Example B73, N-(2,2-dimethyl-3-oxabicyclo[3.1.0]hexan-1-yl}-2-methyl-8-[4-(trifluoromethyl)phenyl]-2H,8H-pyrazolo[3,4-b]indole-5-carboxamide]
22 | 0.1 to 10 | Cn1cc2c3cc(C(=O)NCc4cc5ncccc5[nH]4)ccc3n(-c3ccc(C(F)(F)F)cc3)c2n1 [Example B6, 2-methyl-N-({1H-pyrrolo[3,2-b]pyridin-2-yl}methyl)-8-[4-(trifluoromethyl)phenyl]-2H,8H-pyrazolo[3,4-b]indole-5-carboxamide]
23 | > 10 | Cn1cc2c3cc(C(=O)NCCc4cc(O)n(C)n4)ccc3n(-c3ccc(C(F)(F)F)cc3)c2n1 [Example B38, N-[2-(5-hydroxy-1-methyl-1H-pyrazol-3-yl)ethyl]-2-methyl-8-[4-(trifluoromethyl)phenyl]-2H,8H-pyrazolo[3,4-b]indole-5-carboxamide]
24 | 0.1 to 10 | Cn1cc2c3cc(C(=O)NCC4(n5cncn5)CC4)ccc3n(-c3ccc(C(F)(F)F)cc3)c2n1 [B103^]
25 | 0.1 to 10 | CC(NC(=O)c1ccc2c(c1)c1cn(C)nc1n2-c1ccc(C(F)(F)F)cc1)c1ccc[nH]1 (stereo not drawn) [Example B8, 2-methyl-N-[1-(1H-pyrrol-2-yl)ethyl]-8-[4-(trifluoromethyl)phenyl]-2H,8H-pyrazolo[3,4-b]indole-5-carboxamide]
26 | 0.1 to 10 | Cc1c[nH]c(C2(NC(=O)c3ccc4c(c3)c3cn(C)nc3n4-c3ccc(C(F)(F)F)cc3)CCC2)n1 [Example B60, 2-methyl-N-[1-(4-methyl-1H-imidazol-2-yl)cyclobutyl]-8-[4-(trifluoromethyl)phenyl]-2H,8H-pyrazolo[3,4-b]indole-5-carboxamide]
27 | > 10 | Cn1cc2c3cc(C(=O)NCCc4cccc(F)n4)ccc3n(-c3ccc(C(F)(F)F)cc3)c2n1 [Example B84, N-[2-(6-fluoropyridin-2-yl)ethyl]-2-methyl-8-[4-(trifluoromethyl)phenyl]-2H,8H-pyrazolo[3,4-b]indole-5-carboxamide]
28 | 0.1 to 10 | Cc1cnc2n1CCC2NC(=O)c1ccc2c(c1)c1cn(C)nc1n2-c1ccc(C(F)(F)F)cc1 (stereo not drawn) [Example B57, 2-methyl-N-(3-methyl-5H,6H,7H-pyrrolo[1,2-a]imidazol-7-yl}-8-[4-(trifluoromethyl)phenyl]-2H,8H-pyrazolo[3,4-b]indole-5-carboxamide]
29 | 0.01 to 0.1 | Cc1n[nH]c(C)c1C(C)NC(=O)c1ccc2c(c1)c1cn(C)nc1n2-c1ccc(C(F)(F)F)cc1 (stereo not drawn) [Example B21, N-[1-(3,5-dimethyl-1H-pyrazol-4-yl)ethyl]-2-methyl-8-[4-(trifluoromethyl)phenyl]-2H,8H-pyrazolo[3,4-b]indole-5-carboxamide]
30 | 0.1 to 10 | COc1cc(C(C)NC(=O)c2ccc3c(c2)c2cn(C)nc2n3-c2ccc(C(F)(F)F)cc2)sn1 (stereo not drawn) [Example B83, N-[1-(3-methoxy-1,2-thiazol-5-yl)ethyl]-2-methyl-8-[4-(trifluoromethyl)phenyl]-2H,8H-pyrazolo[3,4-b]indole-5-carboxamide]
